This note sets out measurements from ChEMBL document CHEMBL1147491, “Complestatin synthetic studies; the effect of the amino acid configuration on peptide backbone conformation in the common western BCD macrocycle” (Bioorg Med Chem Lett, 2004).

Holding throughout (parameters): species or system Homo sapiens
A short description of test [1]: Compound required to inhibit binding of CD4 to gp120 at 100 uM concentration; No inhibition.
A short description of test [2]: Compound required to inhibit binding of CD4 to gp120 in the presence of bovine serum albumin(BSA).
The nature of test [3]: Compound required to inhibit binding of CD4 to gp120 in the absence of bovine serum albumin(BSA).

pIC50: −log10 of the molar value.

Turning to `CN[C@H](CC(C)C)C(=O)N[C@H]1C(=O)N[C@@H](CC(N)=O)C(=O)N[C@H]2C(=O)N[C@H]3C(=O)N[C@H](C(=O)N[C@H](C(=O)O)c4cc(O)cc(O)c4-c4cc3ccc4O)[C@H](O)c3ccc(c(Cl)c3)Oc3cc2cc(c3O[C@@H]2O[C@H](CO)[C@@H](O)[C@H](O)[C@H]2O[C@H]2C[C@](C)(N)[C@H](O)[C@H](C)O2)Oc2ccc(cc2Cl)[C@H]1O` [VANCOMYCIN], the IC50 result in test [1] is on record as “No inhibition”. Broadly, the pIC50 is the IC50 on a negative log10 scale, so that one unit is a factor of ten. In the case of `CN1C(=O)[C@@H](c2cc(Cl)c(O)c(Cl)c2)NC(=O)[C@@H]2NC(=O)[C@@H](c3cc(Cl)c(O)c(Cl)c3)NC(=O)[C@H](NC(=O)C(=O)c3cc(Cl)c(O)c(Cl)c3)Cc3c[nH]c4c(cccc34)-c3cc2cc(c3O)Oc2ccc(cc2)C[C@H]1C(=O)N[C@@H](C(=O)O)c1ccc(O)cc1` [CHLOROPEPTIN], the negative logarithm of the IC50 (pIC50) is 5.70 in test [2] and 4.49 in test [3].
